{"source": "patent US12458610B2", "about": "“Pharmaceutical composition for treating or preventing diabetic cataract” (KOREA UNIVERSITY RESEARCH AND BUSINESS FOUNDATION, priority 2019, dated 2025)", "assay_type_in_all_cases": "in vivo, rat", "key": {"[1]": {"system": "Otsuka Long-Evans Tokushima Fatty (OLETF) rats", "experiment": "Onset of cataract in lens by retroillumination imaging (LOCS III C1/P1 or higher)", "conditions": "untreated OLETF 8 out of 12 eyes", "from_the_text": "(§1) Otsuka Long-Evans Tokushima Fatty (OLETF) rats were used as a diabetes animal model of rats. The OLETF rats are widely used as a type 2 diabetes animal model because fat accumulation and hyperglycemia are induced in the body of the experimental animals and the pathological condition is similar to that of type 2 diabetes in human. Long-Evans Tokushima Otsuka (LETO) rats were used as a normal control group. The OLETF rats were divided into three groups depending on midodrine intake: OLETF, OLETF-M0.3 and OLETF-M1.0. The OLETF group was raised without intake of midodrine, the OLETF-M0.3 group was made to ingest 0.3 mg of midodrine every day per body weight (midodrine 0.3 mg/kg/day), and the OLETF-M1.0 group was made to ingest 1.0 mg of midodrine every day per body weight (midodrine 1.0 mg/kg/day). Midodrine was dissolved in drinking water so that the rats could ingest the corresponding daily dosage.\n(§2) The experimental animals were divided into four groups: LETO, OLETF, OLETF-M0.3 and OLETF-M1.0, and all the experimental animals were raised for 12 weeks. During the 12 weeks, the OLETF-M0.3 group and the OLETF-M1.0 group were made to ingest midodrine every day."}, "[2]": {"system": "Otsuka Long-Evans Tokushima Fatty (OLETF) rats", "experiment": "Lens transparency: clarity of graph paper pattern seen through the lens (ImageJ)", "conditions": "midodrine 0.3 mg/kg/day for 12 weeks (OLETF-M0.3), untreated OLETF significantly decreased", "from_the_text": "as §1, §2"}, "hexokinase": {"system": "hexokinase", "experiment": "Hexokinase level in lens by ELISA", "conditions": "OLETF rats, untreated OLETF significantly lower than LETO", "from_the_text": "as §1, §2\n(§3) The levels of aldose reductase, hexokinase and ATP in the lens sample were measured with a spectrophotometer (Spectramax Plus 384; Molecular Devices, Sunnyvale, CA, USA) by ELISA assay."}, "[3]": {"experiment": "Fasting blood sugar level in diabetes model rats, weekly by blood glucose meter", "conditions": "midodrine 1.0 mg/kg/day in drinking water (OLETF-M1.0), from week 9", "from_the_text": "as §1, §2"}, "[4]": {"system": "AMPK (AMP-activated protein kinase)", "experiment": "AMPK level in lens", "conditions": "OLETF rats, midodrine 0.3 mg/kg/day (OLETF-M0.3); OLETF 0.0509±0.0293 U/mL"}, "ATP": {"system": "ATP", "experiment": "ATP level in lens by ELISA", "conditions": "OLETF rats, OLETF 2.307±0.225, LETO 2.622±0.146", "from_the_text": "as §1, §2, §3"}, "aldose reductase": {"system": "aldose reductase", "experiment": "Aldose reductase level in lens by ELISA", "conditions": "OLETF rats, OLETF 38.4±3.1, LETO 37.2±2.8", "from_the_text": "as §1, §2, §3"}, "TNFα": {"system": "TNFα", "experiment": "TNFα level in blood (plasma)", "conditions": "OLETF rats, midodrine 0.3 mg/kg/day (OLETF-M0.3); OLETF 10.667±2.732, LETO 7.23±0.722", "from_the_text": "as §1, §2"}, "[5]": {"experiment": "Body weight change in diabetes model rats", "conditions": "OLETF rats; for body weight over time: raising period", "from_the_text": "as §1, §2"}, "[6]": {"conditions": "midodrine 0.3 mg/kg/day (OLETF-M0.3)"}, "[7]": {"conditions": "midodrine 1.0 mg/kg/day (OLETF-M1.0)"}}}
{"smiles": "COc1ccc(OC)c(C(O)CNC(=O)CN)c1", "note": "(racemic) [midodrine, (RS)—N-[2-(2,5-dimethoxyphenyl)-2-hydroxyethyl]glycinamide]", "values": [{"measurement": "eyes with cataract observed", "setting": "[1]; midodrine 0.3 mg/kg/day for 12 weeks (OLETF-M0.3)", "value": "1 out of 10"}, {"measurement": "eyes with cataract observed", "setting": "[1]; midodrine 1.0 mg/kg/day for 12 weeks (OLETF-M1.0)", "value": "2 out of 8"}, {"measurement": "lens transparency compared with the LETO group", "setting": "[2]", "value": "no significant difference"}, {"measurement": "hexokinase level in lens as compared to the LETO group", "setting": "hexokinase; [6]", "value": "no significant difference"}, {"measurement": "hexokinase level in lens as compared to the LETO group", "setting": "hexokinase; [7]", "value": "no significant difference"}, {"measurement": "fasting blood sugar level as compared to the OLETF group", "setting": "[3]", "value": "decreased slightly"}, {"measurement": "AMPK level in lens as compared to the OLETF group", "setting": "[4]", "value": "significantly increased"}, {"measurement": "level of ATP in lens", "setting": "ATP; [6]", "value": "3.065 ± 0.202", "unit": "ng/mL"}, {"measurement": "level of ATP in lens", "setting": "ATP; [7]", "value": "3.025 ± 0.299", "unit": "ng/mL"}, {"measurement": "level of aldose reductase in lens", "setting": "aldose reductase; [6]", "value": "33.6±2.6", "unit": "U/L"}, {"measurement": "level of aldose reductase in lens", "setting": "aldose reductase; [7]", "value": "34.1±2.8", "unit": "U/L"}, {"measurement": "level of the inflammatory cytokine TNFα in blood (plasma)", "setting": "TNFα", "value": "5.383 ± 0.984", "unit": "pg/mL"}, {"measurement": "body weight compared with the LETO group", "setting": "[5]; midodrine 0.3 mg/kg/day (OLETF-M0.3), from week 9", "value": "no significant difference"}, {"measurement": "body weight over time", "setting": "[5]; midodrine 0.3 mg/kg/day in drinking water (OLETF-M0.3)", "value": "decreased slightly with time"}, {"measurement": "body weight over time", "setting": "[5]; midodrine 1.0 mg/kg/day in drinking water (OLETF-M1.0)", "value": "decreased slightly with time"}]}
